Data on one compound can be found in article PMC8148378 (Chemical Science, 2019).

Structures are written as SMILES. In brackets after ≈: the same amount, converted by molar mass.

One series concerns E. faecalis ATCC-29212. The series can be described thus: MIC determination, larger panel. The series is classed as cell-based. The settings on record: Enterococcus faecalis, ATCC29212, read-out: MIC E. faecalis.
Another series relates to A. baumannii DSM-30008. The series can be described thus: MIC determination, larger panel. The class given is cell-based. The following applies: Acinetobacter baumannii, DSM30008, read-out: MIC A. baumannii, DSM-30008.
For the next series, the system named is E. coli WT-3. In words: MIC determination, larger panel. The series is classed as cell-based. The following applies: Escherichia coli, WT3, read-out: MIC E. coli WT-3.
The test system of a further series is E. aerogenes DSM-30053. In words: MIC determination, larger panel. The class given is cell-based, Enterobacter aerogenes. The following applies: Klebsiella aerogenes, DSM30053, read-out: MIC E. aerogenes.
A further series relates to E. cloacae DSM-30054. The series can be described thus: MIC determination, larger panel. The class given is cell-based. The following applies: Enterobacter cloacae, DSM30054, read-out: MIC E. cloacae.
For series [1], the system named is P. aeruginosa ESBL 1 DSM-24600. In words: MIC determination, larger panel. The settings on record: Pseudomonas aeruginosa, DSM24600, read-out: MIC P. aeruginosa ESBL 1. The series is classed as cell-based.
For series [2], the system named is P. aeruginosa ESBL 2 DSM-46316. In words: MIC determination, larger panel. The series is classed as cell-based. The settings on record: Pseudomonas aeruginosa, DSM46316, read-out: MIC P. aeruginosa ESBL 2.
Another series relates to K. pneumoniae DSM-30104. In words: MIC determination, larger panel. The class given is cell-based. The following applies: Klebsiella pneumoniae, DSM30104, read-out: MIC K. pneumoniae.
The next series has as its system S. marcescens DSM-30121. The series can be described thus: MIC determination, larger panel. The class given is cell-based. The settings on record: Serratia marcescens, DSM30121, read-out: MIC S. marcescens.
For the next series, the system named is P. mirabilis DSM-4479. In words: MIC determination, larger panel. The class given is cell-based. The following applies: Proteus mirabilis, DSM4479, read-out: MIC P. mirabilis.
The nature of series [3]: Single dosing pharmacokinetic study. The series is classed as in vivo, male CD-1 outbred mice. The settings on record: 5 mg/kg, plasma.
A short description of a further series: In vivo tolerance study. Details: species or system male CD-1 mice.
Series [4] in a line: Neutropenic thigh infection model, s.c. and i.v. administration. The series is classed as in vivo, neutropenic CD-1 mice. The following applies: male, CD-1, mouse, muscle, other: intravenous then subcutaneous.
Another series relates to E. coli strain ATCC25922. The series is described as above. The class given is in vivo, neutropenic CD-1 mice. The settings on record: 24 h after infection.
The test system of a further series is E. coli ATCC25922. The series can be described thus: Neutropenic murine thigh infection model, i.v. administration. The series is classed as in vivo, male ICR mice.

For `CC(C)Oc1c(NC(=O)c2ccc(NC(=O)[C@H](CC(N)=O)NC(=O)c3ccc(NC(=O)c4ccc(C#N)cc4)cc3)cc2)ccc(C(=O)Nc2ccc(C(=O)O)cc2)c1O` [Compound 22], the MIC in the series on E. faecalis ATCC-29212 was 0.5 µg/mL (≈ 0.616 µM); with A. baumannii DSM-30008, 1 µg/mL (≈ 1.23 µM); with E. coli WT-3, 0.25 µg/mL (≈ 0.308 µM); in the series with E. aerogenes DSM-30053, 0.06 µg/mL (≈ 0.0739 µM); in the series on E. cloacae DSM-30054 it was 0.25 µg/mL (≈ 0.308 µM); in series [1], 4 µg/mL (≈ 4.93 µM). The MIC in [2] is 4 µg/mL (≈ 4.93 µM); in the series on K. pneumoniae DSM-30104 it was 0.5 µg/mL (≈ 0.616 µM); in the series on S. marcescens DSM-30121 it was greater than 64 µg/mL; with P. mirabilis DSM-4479, greater than 64 µg/mL. Moreover, the “V/F (volume of distribution)” value in [3] (i.v.) stood at 3.5 L/kg. This compound also registered an AUC in [3] (male, CD-1, mouse, iv, area under the curve (AUC), 5 mg kg^−1, plasma) of roughly 2000 ng·h/mL. The adverse effects result in “In vivo tolerance study” (5 mg kg^−1 i.v. four times every 6 hours (20 mg kg^−1 per day)) was “no adverse effect”; in “In vivo tolerance study” (10 mg kg^−1 i.v. four times every 6 hours (40 mg kg^−1 per day)), “no adverse effect”; in “In vivo tolerance study” (20 mg kg^−1 i.v. four times every 6 hours (80 mg kg^−1 per day)) it was “one animal in the group treated at 20 mg kg^−1 showed adverse effects”. In [4], this compound yielded a concentration at 24 h of roughly 100 ng/mL. In the series with E. coli strain ATCC25922, the “reduction of the bacterial load in lung” value is 3 log units. Moreover, the “bacterial load in kidney” value in the series with E. coli strain ATCC25922 (all dosing groups, compared to vehicle-treated animals) was “complete bacterial clearance”. Besides, the figures for the “Log10 variation from vehicle control” value with E. coli ATCC25922 (20mg/kg/day i.v.), in the series with E. coli ATCC25922 (40mg/kg/day i.v.) and with E. coli ATCC25922 (50mg/kg/day i.v.) were −3.97 CFU/g, −5.32 CFU/g and −4.89 CFU/g, respectively.

The MIC is the lowest concentration that inhibits growth of the organism. Usually AUC stands for the area under the concentration-time curve, a measure of exposure.
